The supplement of paper PMC10307832

What was measured:
Test in all cases: relative viability (nuclei count vs DMSO), 5 days (fraction); higher = more cells survive
[1] = compound: O=C(Nc1c[nH]nc1-c1nc2ccc(CN3CCOCC3)cc2[nH]1)NC1CC1 [AT9283] + CC(=O)Nc1cccc(-n2c(=O)n(C3CC3)c(=O)c3c(Nc4ccc(I)cc4F)n(C)c(=O)c(C)c32)c1 [Trametinib] (partner 0.02 µM)
In short: (§1)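 One day after seeding in 1536-well plates, lung cancer cell lines were dosed by pin tool. Dosing was either single-drug or a fixed anchor-drug dose plus five library-drug doses (not always all listed) in √10 steps. After 5 days, nuclei were stained in one fix-and-stain step and counted on 4× images, and relative viability is the nuclei count of treated wells over that of vehicle wells, given as the median of duplicate plates.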

[2] = compound: O=C(Nc1c[nH]nc1-c1nc2ccc(CN3CCOCC3)cc2[nH]1)NC1CC1 [AT9283] + COc1cc2c(Oc3ccc(NC(=O)C4(C(=O)Nc5ccc(F)cc5)CC4)cc3F)ccnc2cc1OCCCN1CCOCC1 [Foretinib] (partner 0.25 µM)
In short: as §1

[3] = compound: O=C(Nc1c[nH]nc1-c1nc2ccc(CN3CCOCC3)cc2[nH]1)NC1CC1 [AT9283] + Cc1cc(Nc2cc(N3CCN(C)CC3)nc(Sc3ccc(NC(=O)C4CC4)cc3)n2)n[nH]1 [Tozasertib] (partner 0.1 µM)
In short: as §1

[4] = compound: O=C(Nc1c[nH]nc1-c1nc2ccc(CN3CCOCC3)cc2[nH]1)NC1CC1 [AT9283] + Nc1nc2[nH]cc(CCc3ccc(C(=O)N[C@@H](CCC(=O)O)C(=O)O)cc3)c2c(=O)[nH]1 [Pemetrexed] (partner 0.2 µM)
In short: as §1

[5] = compound: C#Cc1cccc(Nc2ncnc3cc(OCCOC)c(OCCOC)cc23)c1 [Erlotinib] + CS(=O)(=O)CCNCc1ccc(-c2ccc3ncnc(Nc4ccc(OCc5cccc(F)c5)c(Cl)c4)c3c2)o1 [Lapatinib] (partner 2 µM)
In short: as §1

Row | Cell Line | relative viability ([1]; first compound 0.003 µM) | relative viability ([1]; first compound 0.03 µM) | relative viability ([1]; first compound 0.09487 µM) | relative viability ([1]; first compound 0.3 µM) | relative viability ([2]; first compound 0.003 µM) | relative viability ([2]; first compound 0.03 µM) | relative viability ([2]; first compound 0.09487 µM) | relative viability ([2]; first compound 0.3 µM) | relative viability ([3]; first compound 0.003 µM) | relative viability ([3]; first compound 0.03 µM) | relative viability ([3]; first compound 0.09487 µM) | relative viability ([3]; first compound 0.3 µM) | relative viability ([4]; first compound 0.003 µM) | relative viability ([4]; first compound 0.03 µM) | relative viability ([4]; first compound 0.09487 µM) | relative viability ([4]; first compound 0.3 µM) | relative viability ([5]; first compound 0.02 µM) | relative viability ([5]; first compound 0.2 µM) | relative viability ([5]; first compound 0.6325 µM) | relative viability ([5]; first compound 2 µM)
1 | ChaGo-K-1 | 0.78 | 0.844 | 0.494 | 0.205 | 0.918 | 0.521 | 0.319 | 0.268 | 0.196 | 0.208 | 0.215 | 0.236 | 0.239 | 0.247 | 0.188 | 0.166 | – | – | – | –
2 | EBC-1 | – | – | – | – | 0.107 | 0.0785 | 0.0877 | 0.075 | – | – | – | – | – | – | – | – | 0.23 | 0.19 | 0.221 | 0.22
3 | EKVX | 0.361 | 0.345 | 0.32 | 0.191 | 0.775 | 0.728 | 0.626 | 0.257 | 0.377 | 0.312 | 0.317 | 0.183 | 0.436 | 0.352 | 0.211 | 0.204 | 0.206 | 0.178 | 0.192 | 0.186
4 | EMC-BAC-2 | 0.923 | 0.58 | 0.362 | 0.336 | 1.04 | 0.305 | 0.289 | 0.208 | 0.283 | 0.192 | 0.198 | 0.133 | 0.466 | 0.414 | 0.367 | 0.266 | 0.934 | 0.828 | – | 0.822
5 | EPLC-272H | 0.285 | 0.287 | 0.161 | 0.152 | 0.622 | 0.217 | 0.12 | 0.123 | 0.306 | 0.192 | 0.203 | 0.159 | 0.358 | 0.212 | 0.177 | 0.138 | 0.923 | 1.1 | 1.24 | 0.763
6 | H3255 | 0.65 | 0.614 | 0.459 | 0.284 | 0.924 | 0.794 | 0.734 | 0.183 | 0.664 | 0.358 | 0.2 | 0.161 | 0.544 | 0.553 | 0.46 | 0.238 | 0.323 | 0.259 | 0.253 | –
7 | HARA | 0.691 | 0.203 | 0.118 | 0.151 | 0.79 | 0.151 | 0.122 | 0.109 | 0.154 | 0.1 | 0.0825 | 0.0852 | 0.217 | 0.239 | 0.167 | 0.166 | 0.857 | 0.902 | 0.976 | 0.688
8 | HCC-15 | 0.377 | 0.381 | 0.178 | 0.149 | 1.02 | 0.397 | 0.161 | 0.19 | 0.25 | 0.134 | 0.126 | 0.0965 | 0.223 | 0.208 | 0.143 | 0.159 | 0.939 | 0.852 | 0.93 | 0.785
9 | HCC-44 | 0.923 | 1.07 | 0.635 | 0.938 | – | – | – | – | 0.94 | 0.621 | 0.294 | 0.321 | 0.629 | 0.666 | 0.564 | 0.694 | – | 1.09 | 1.03 | 0.928
